# Tests used:
# [1] = tested on: scopolamine-induced memory disordered model mice; assay: Morris water maze spatial probe test in scopolamine-induced memory disordered mice; assay type: in vivo, Kunming mice; conditions: for Latent period of crossing the original platform / Number of time of crossing platform: fifth day, Mean ± SD
# Experimental: (§1) Fifty Kunming mice, weighing 18-22 g, were randomly divided into five groups: blank control group, model group, low-dose PQQ betaine salt group (1.5 mg/kg), high-dose PQQ betaine salt group (3 mg/kg) and positive control group (donepezil, 3 mg/kg), respectively, 10 mice in each group. Wherein the PQQ betaine salt used is a crystalline Form A of pyrroloquinoline quinone betaine salt prepared according to the method of example 1.
# (§2) The blank control group and the model group were administered with distilled water by gavage, the low-dose PQQ betaine salt group, the high-dose group and positive control group were administered with drugs by gavage respectively, once a day. Learning and memory training was carried out on the fifth day of administration and for 5 days in total; the model group, the low-dose PQQ betaine salt group, the high-dose group and the positive control group were intraperitoneally injected with 2 mg/kg of scopolamine 20 minutes earlier before training to obtain memory disordered models, while the blank control group was injected with a corresponding volume of saline. Morris water maze experiment were carried out for 5 days in total, wherein, a place navigation test was carried out in the first 4 days in order to observe and record the time required for the experimental animals to seek and climb onto the platform, in order to test the learning ability of mice. On the fifth day, a spatial probe test was carried out, during the test, the platform was removed, the time (the latent period) when crossing the original platform position for the first time was recorded as well as the number of time of traversing the original platform position for the animal, in order to test the spatial memory capacity of the animal. The latent period and the number of time of traversing platforms were used as evaluation indexes to detect the improvement of learning and memory in dementia model mice.
# [2] = Dynamic moisture sorption (DVS) hygroscopicity; assay type: physicochemical; conditions: warehouse environment (humidity of 45%)
# [3] = tested on: CC14-induced acute liver injury model mice; assay: CC14-induced acute liver injury model: ALT, AST in serum, SOD, GSH-Px, MDA in liver homogenate; assay type: in vivo, Kunming mice; conditions: for GSH-Px / MDA / SOD: liver homogenate, Mean ± SD; for GSH-Px / MDA / SOD / ALT / AST: 3 mg/kg by weight of PQQ, gavage once a day for 7 days; for ALT / AST: serum, 24 h after CC14, Mean ± SD
# Experimental: Forty-eight male Kunming mice weighing 18-22 g were randomly divided into 4 groups: blank control group, CC14 model group, PQQ disodium salt group and PQQ betaine salt group, respectively, with 12 mice in each group.
# On the 7th day after gavage for 1 h, the mice in CC14 model group, PQQ disodium salt group and PQQ betaine salt group were injected intraperitoneally with 0.25% CC14 peanut oil (10 mL/kg) once, resulting in acute liver injury models; while mice in the blank control group were injected intraperitoneally with peanut oil (10 mL/kg) once. Animals were sacrificed after orbital blood collection for 24 h. 0.5-1 mL blood was collected from the mouse orbit, serum was separated by static centrifugation, and ALT and AST levels in serum were measured by biochemical kits. Animals were sacrificed and livers were removed for preparing liver homogenate. Superoxide dismutase (SOD), glutathione peroxidase (GSH-Px) activity and malondialdehyde (MDA) content in liver homogenates were determined by biochemical kits.
# [4] = tested on: scopolamine-induced memory disordered model mice; assay: Morris water maze place navigation test in scopolamine-induced memory disordered mice; assay type: in vivo, Kunming mice; conditions: for Latent period, the first day / Latent period, the fourth day / Latent period, the second day / Latent period, the third day: time to climb onto the platform, Mean ± SD
# Experimental: as §1, §2
# [5] = Illumination stability of the crystalline form (XRPD); conditions: light intensity of 4500 lux, 5 and 10 days
# Source text: An appropriate amount of sample of the crystalline Form A of pyrroloquinoline quinone betaine salt was subjected to a light intensity of 4500 lux, and after 5 and 10 days the sample was removed for XPRD testing (as shown in FIGS. 6 and 7) to examine the crystalline stability of the sample under illumination.
# [6] = High humidity stability of the crystalline form (XRPD); conditions: humidity of 92.5%, 5 days and 10 days
# Source text: The appropriate amount of sample of the crystalline Form A of pyrroloquinoline quinone betaine salt is subjected to the humidity of 92.5%, and after 5 days and 10 days the samples were removed for XPRD testing (as shown in FIGS. 4 and 5) to examine the crystalline stability of the sample against humidity.
# [7] = High temperature stability of the crystalline form (XRPD); conditions: oven at 60° C., 5 days and 10 days
# Experimental: An appropriate amount of sample of the crystalline Form A of Pyrroloquinoline Quinone Betaine Salt was placed in an oven at 60° C., and after 5 days and 10 days the sample was removed for XPRD testing (as shown in FIGS. 2 and 3) to examine the crystalline stability of the sample against temperature.
# [8] = Solubility of saturated aqueous solution by UV absorbance at 450 nm
# [9] = Standing at room temperature (hygroscopicity observation); assay type: physicochemical; conditions: room temperature (25° C., about 50% humidity), a period of time
# [10] = P<0.05 compared to the model group
molecule,measurement,setting,value
"COc1cc2c(cc1OC)C(=O)C(CC1CCN(Cc3ccccc3)CC1)C2 (centres unmarked) [Donepezil, donepezil, reference compound]",Latent period of crossing the original platform,[1]; 3 mg/kg,16.41 ± 7.60^ΔΔ s
same,Number of time of crossing platform,[1]; 3 mg/kg,2.90 ± 0.57^ΔΔ
pyrroloquinoline quinone betaine salt [PQQ betaine salt],moisture sorption,[2],1.1%
same,effect on CC14-induced acute liver injury in mice,"[3]; 3 mg/kg, gavage, 7 days, overall conclusion",significantly improved
same,GSH-Px,[3],93.5 ± 9.0^ΔΔ kU/g pro
same,MDA,[3],2.61 ± 0.37^ΔΔ nmol/L
same,SOD,[3],31.1 ± 4.5^ΔΔ kU/g pro
same,ALT,[3],110.1 ± 26.0^ΔΔ IU/L
same,AST,[3],110.0 ± 20.4^ΔΔ IU/L
same,"Latent period, the first day",[4]; 1.5 mg/kg gavage once a day,74.30 ± 17.80 s
same,"Latent period, the fourth day",[4]; 1.5 mg/kg gavage once a day,50.80 ± 15.95 s
same,"Latent period, the second day",[4]; 1.5 mg/kg gavage once a day,62.90 ± 14.07 s
same,"Latent period, the third day",[4]; 1.5 mg/kg gavage once a day,51.90 ± 16.43 s
same,"Latent period, the first day",[4]; 3 mg/kg gavage once a day,74.70 ± 16.94 s
same,"Latent period, the fourth day",[4]; 3 mg/kg gavage once a day,29.50 ± 12.29^ΔΔ s
same,"Latent period, the second day",[4]; 3 mg/kg gavage once a day,62.30 ± 13.84 s
same,"Latent period, the third day",[4]; 3 mg/kg gavage once a day,38.20 ± 14.01^Δ s
same,latent period in place navigation compared with the model group,[4]; P<0.05 or P<0.01 compared with the model group,significantly shortened
same,Latent period of crossing the original platform,[1]; 1.5 mg/kg,25.48 ± 12.19^ΔΔ s
same,Number of time of crossing platform,[1]; 1.5 mg/kg,2.20 ± 0.42^Δ
same,Latent period of crossing the original platform,[1]; 3 mg/kg,20.98 ± 9.44^ΔΔ s
same,Number of time of crossing platform,[1]; 3 mg/kg,2.10 ± 0.57^Δ
same,latent period in spatial search compared to the model group,[1]; [10],reduced
same,number of time of crossing platform compared to the model group,[1]; [10],increased
same,crystalline stability under illumination,[5],stable
same,crystalline stability against humidity,[6],stable
same,crystalline stability against temperature,[7],stable
same,Relative ratio (solubility),[8],1.50
same,Solubility,"[8]; saturated aqueous solution at 30° C., solubility of pyrroloquinoline quinone",14.50 mM
C[N+](C)(C)CCO.C[N+](C)(C)CCO.C[N+](C)(C)CCO.O=C(O)c1cc(C(=O)O)c2c(n1)C(=O)C(=O)c1cc(C(=O)O)[nH]c1-2 [tricholine salt of PQQ],appearance after standing (hygroscopicity),[9],became a sticky solid
"O=C([O-])c1cc(C(=O)[O-])c2c(n1)C(=O)C(=O)c1cc(C(=O)O)[nH]c1-2.[Na+].[Na+] [Disodium salt of PQQ, reference compound]",GSH-Px,[3],93.4 ± 10.1^ΔΔ kU/g pro
same,MDA,[3],2.71 ± 0.37^Δ nmol/L
same,SOD,[3],29.5 ± 4.9^Δ kU/g pro
same,ALT,[3],126.5 ± 27.0^ΔΔ IU/L
same,AST,[3],115.4 ± 22.7^Δ IU/L

# From patent US11414414B2, “Pyrroloquinoline quinone glycine betaine salt” (SHANGHAI XUANCHUANG BIOLOGICAL TECHNOLOGY CO., LTD., priority 2016, dated 2022)
